The values that follow come from ChEMBL document CHEMBL1125324, “Development of a novel class of cyclic hexapeptide oxytocin antagonists based on a natural product” (J Med Chem, 1992).

SMILES strings stand for the structures. In brackets after ≈: the same amount, converted by molar mass. Where a SMILES comes first, the peptide text is derived from it. [ ]: non-standard residue; d: D form. d2Nal = N[C@H](Cc1ccc2ccccc2c1)C(=O)O; Pip(4-aza) = O=C(O)[C@@H]1CNCCN1; dNMeF = CN[C@H](Cc1ccccc1)C(=O)O; Pip = O=C(O)[C@@H]1CCCCN1; dPip = O=C(O)[C@H]1CCCCN1

The species named for series [1] is Rattus norvegicus. The series is described as follows: Compound was evaluated for the inhibition of accumulation of total [3H]inositol phosphates stimulated by exposure of the tissue to OT. Format: functional.
Series [2] is described as follows: Aqueous solubility was determined. Format: physicochemical.
The species named for series [3] is Rattus norvegicus. The series is described as follows: pA2 value was determined from regression analysis of log (dose ratio-1) vs -log [antagonist] (isolated uterus from DES-pretreated rats). In kind it is functional. Conditions: read-out: pA2 (converted).
Series [4] has as its target T1, Vasopressin V2 receptor (Rattus norvegicus, UniProt Q00788). The experiment in a line: Inhibition of [3H]arginine vasopressin binding to AVP-V2 site in rat kidney medulla. Format: tissue-based.
The subject of series [5] is Rattus norvegicus. The series is described as follows: Dose required for 50% reduction of the contractile response of the uterus to OT (1 ug/kg, iv bolus) in DES-pretreated rats. In kind it is functional.
Series [6] addresses Vasopressin V1a receptor (Rattus norvegicus, UniProt P30560). The experiment in a line: Concentration required to displace 50% of [3H]arginine vasopressin from rat liver arginine vasopressin 1A (AVP-V1a) site.
Series [7] addresses T2, Oxytocin receptor (Rattus norvegicus, UniProt P70536).
T2 sequence (P70536 whole entry): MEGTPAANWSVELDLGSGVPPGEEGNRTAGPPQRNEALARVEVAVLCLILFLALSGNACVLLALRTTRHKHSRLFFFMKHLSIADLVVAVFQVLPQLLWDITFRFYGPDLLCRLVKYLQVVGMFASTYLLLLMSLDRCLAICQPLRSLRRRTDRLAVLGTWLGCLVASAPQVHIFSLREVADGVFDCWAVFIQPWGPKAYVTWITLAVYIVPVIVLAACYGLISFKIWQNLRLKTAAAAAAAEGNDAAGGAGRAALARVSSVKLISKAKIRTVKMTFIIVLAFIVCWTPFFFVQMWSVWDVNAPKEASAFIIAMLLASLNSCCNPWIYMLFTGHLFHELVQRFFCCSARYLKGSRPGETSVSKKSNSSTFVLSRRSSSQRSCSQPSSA
The series is described as follows: Concentration required to displace 50% of [3H]oxytocin from rat uterine receptor.

The target in series [8] is T1, Vasopressin V2 receptor. The series is described as follows: Ability to inhibit AVP stimulation of adenylate cyclase activity in the rat kidney medulla (AVP-V2) receptor.
In series [9] the target is T1, Vasopressin V2 receptor. The experiment in a line: Concentration required to displace 50% of [3H]arginine vasopressin from rat kidney medullary (AVP-[…] site).
For series [10], the target named is Vasopressin V1a receptor (Rattus norvegicus) (UniProt P30560). The series is described as follows: Displacement of [3H]arginine vasopressin from rat liver (AVP-V1a site) at 10 uM. In general terms: Displacement assays read how much labelled ligand stays bound in the presence of the test substance.
Chain of Vasopressin V1a receptor (Rattus norvegicus) (P30560 whole entry, looked up): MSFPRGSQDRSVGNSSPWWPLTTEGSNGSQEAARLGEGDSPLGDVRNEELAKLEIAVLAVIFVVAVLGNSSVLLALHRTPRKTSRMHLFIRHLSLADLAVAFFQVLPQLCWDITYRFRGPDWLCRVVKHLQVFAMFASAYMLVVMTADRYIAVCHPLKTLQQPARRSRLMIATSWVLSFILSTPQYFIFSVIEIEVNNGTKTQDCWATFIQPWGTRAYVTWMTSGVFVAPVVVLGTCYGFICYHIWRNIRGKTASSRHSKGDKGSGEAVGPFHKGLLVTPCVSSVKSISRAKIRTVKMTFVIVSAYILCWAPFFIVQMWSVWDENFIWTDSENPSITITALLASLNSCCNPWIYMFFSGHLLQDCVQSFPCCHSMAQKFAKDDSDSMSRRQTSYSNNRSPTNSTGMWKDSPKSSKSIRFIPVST
The target in series [11] is Vasopressin V2 receptor (Rattus norvegicus) (UniProt Q00788). The series is described as follows: Displacement of [3H]arginine vasopressin from rat kidney medullary (AVP-V2 site) at 10 uM. In kind it is tissue-based.
Chain of Vasopressin V2 receptor (Rattus norvegicus) (Q00788 whole entry): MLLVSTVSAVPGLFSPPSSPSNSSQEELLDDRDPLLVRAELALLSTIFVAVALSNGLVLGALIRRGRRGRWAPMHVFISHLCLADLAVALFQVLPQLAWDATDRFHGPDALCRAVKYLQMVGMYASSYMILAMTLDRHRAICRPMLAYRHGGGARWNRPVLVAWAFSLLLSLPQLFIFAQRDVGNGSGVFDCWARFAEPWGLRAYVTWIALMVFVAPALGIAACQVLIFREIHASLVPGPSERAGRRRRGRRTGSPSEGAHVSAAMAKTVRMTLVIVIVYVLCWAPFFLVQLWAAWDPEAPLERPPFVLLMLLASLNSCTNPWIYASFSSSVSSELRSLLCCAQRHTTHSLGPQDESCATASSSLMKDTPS
Series [12] addresses T3, Oxytocin receptor (Rattus norvegicus) (UniProt P70536).
T3 sequence (whole entry): T2 sequence (P70536 whole entry)
The experiment in a line: Inhibition of displacement of [3H]oxytocin from rat uterine receptor at 10 uM.

For series [13], the target named is T2, Oxytocin receptor. The experiment in a line: Compound was evaluated for OT receptor affinity by displacement of [3H]OT from binding sites in uterine tissue taken from pregnant rats.
Series [14] deals with T4, Oxytocin receptor (Homo sapiens, UniProt P30559).
T4 sequence (P30559 whole entry): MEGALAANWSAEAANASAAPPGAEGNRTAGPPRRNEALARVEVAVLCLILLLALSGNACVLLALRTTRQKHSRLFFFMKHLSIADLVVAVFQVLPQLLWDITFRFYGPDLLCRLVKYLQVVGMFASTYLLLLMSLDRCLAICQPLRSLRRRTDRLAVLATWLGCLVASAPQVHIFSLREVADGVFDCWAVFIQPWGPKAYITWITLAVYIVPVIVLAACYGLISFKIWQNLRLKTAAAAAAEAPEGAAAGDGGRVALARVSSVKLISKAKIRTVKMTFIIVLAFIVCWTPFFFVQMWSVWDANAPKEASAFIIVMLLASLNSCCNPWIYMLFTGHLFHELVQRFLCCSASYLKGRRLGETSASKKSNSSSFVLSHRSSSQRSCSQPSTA
The experiment in a line: Compound was evaluated for OT receptor affinity by displacement of [3H]OT from binding sites in uterine tissue taken from nonlabor pregnant women.

Series [15] is filed under the species Rattus norvegicus. The experiment in a line: pA2 value by AVP (V1a) stimulated contraction of the isolated rat tail artery. Format: functional. Conditions: read-out: pA2 (converted).
The species named for series [16] is Rattus norvegicus. The series is described as follows: pA2 value was determined from regression analysis of log (dose ratio-1) vs -log [antagonist] (OT stimulated contractions in isolated uterus from DES-pretreated rats). In kind it is functional. Conditions: read-out: pA2 (converted).
For series [17], the species on record is Rattus norvegicus. The experiment in a line: Compound was evaluated for the inhibition of accumulation of total [3H]inositol phosphates stimulated by exposure of uterine slices from DES-pretreated rats to OT. Format: functional.

T1 sequence (Q00788 whole entry): as the sequence (Q00788 whole entry) above
Chain of Vasopressin V1a receptor (P30560 whole entry): as the sequence (P30560 whole entry, looked up) above

In the case of `CC[C@H](C)[C@@H]1NC(=O)[C@@H](Cc2c[nH]c3ccccc23)NC(=O)[C@@H]2CCCN2C(=O)[C@@H](Cc2c[nH]cn2)NC(=O)[C@@H]2CCCCN2C(=O)[C@H]2CCC=NN2C1=O`, the results for the IC50 in series [1] and in series [4] were 42 nM and 1100 nM, respectively. Also, the solubility in series [2] came to 1900 µg/mL (≈ 2520 µM). In addition, in series [3], the Kb was 1.51 nM. Besides, the AD50 in series [5] was found to be 90.3 µg/kg.
In [2], `CC[C@H](C)[C@@H]1NC(=O)[C@@H](Cc2ccc3ccccc3c2)NC(=O)[C@@H]2CCCN2C(=O)[C@@H](Cc2ccccc2)N(C)C(=O)[C@H](CCCCN)NC(=O)[C@H]2CCCCN2C1=O` (cyclo(I[dPip]K[dNMeF]P[d2Nal])) showed a solubility of 1700 µg/mL (≈ 2100 µM). In addition, the IC50 was 1300 nM in series [6], 13 nM in series [7] and 110 nM in series [4].
For the molecule `CC[C@H](C)[C@@H]1NC(=O)[C@@H](Cc2c[nH]c3ccccc23)NC(=O)[C@@H]2CCCN2C(=O)[C@@H](Cc2c[nH]cn2)NC(=O)[C@@H]2CCCCN2C(=O)[C@H]2CCCCN2C1=O` (cyclo(I[dPip][Pip][dH]P[dW])) [listing 1 of 3 here], the solubility in series [2] was 2000 µg/mL (≈ 2650 µM). In addition, the IC50 was 7400 nM in [6], 5200 nM in series [4] and 3100 nM in [8].
Consider `CC[C@H](C)[C@@H]1NC(=O)[C@@H](Cc2c[nH]c3ccccc23)NC(=O)[C@@H]2CCCN2C(=O)[C@@H](Cc2c[nH]cn2)NC(=O)[C@@H]2CCCCN2C(=O)[C@H]2CCCCN2C1=O` (cyclo(I[dPip][Pip][dH]P[dW])) [listing 2 of 3 here], for which the AD50 in [5] turned out to be 1.3 µg/kg.
For `CC[C@H](C)[C@@H]1NC(=O)[C@@H](Cc2c[nH]c3ccccc23)NC(=O)[C@@H]2CCCN2C(=O)[C@@H](Cc2ccccc2)N(C)C(=O)[C@H](CCCCN)NC(=O)[C@H]2CCCCN2C1=O` (cyclo(I[dPip]K[dNMeF]P[dW])), the results for the half-maximal inhibitory concentration (IC50) in [6] and in series [9] were 1600 nM and 410 nM, respectively.
In the case of `CC[C@H](C)[C@@H]1NC(=O)[C@H](C)NC(=O)[C@@H]2CCCN2C(=O)[C@@H](Cc2ccccc2)N(C)C(=O)[C@@H]2CCCCN2C(=O)[C@H]2CCCCN2C1=O`, the inhibition in series [10] was 0%; in [11], 4%; in [12], 0%.
In the case of `CC[C@H](C)[C@@H]1NC(=O)[C@@H](Cc2ccc3ccccc3c2)NC(=O)[C@@H]2CCCN2C(=O)[C@@H](Cc2c[nH]cn2)NC(=O)[C@@H]2CCCCN2C(=O)[C@H]2CCCCN2C1=O` (cyclo(I[dPip][Pip][dH]P[d2Nal])), the half-inhibitory concentration (IC50) came out at 40 nM in series [1]; 2600 nM in series [6]; 2.2 nM in [7]; 910 nM in [4]; 810 nM in series [8]. Besides, the solubility in series [2] is 1500 µg/mL (≈ 1960 µM). In addition, the figures for the Kb in series [3] and in [15] were 2.95 nM and 282 nM, respectively. For the same molecule, the results for the Ki in series [13] and in series [14] were 0.7 nM and 5.1 nM, respectively. Further, in series [5], the AD50 worked out at 102 µg/kg.
On to `CC[C@H](C)[C@@H]1NC(=O)[C@@H](Cc2c[nH]c3ccccc23)NC(=O)[C@@H]2CCCN2C(=O)[C@@H](Cc2ccccc2)N(C)C(=O)[C@@H]2CNCCN2C(=O)[C@H]2CCCCN2C1=O` (cyclo(I[dPip][Pip(4-aza)][dNMeF]P[dW])), for which the concentration in solution in series [2] (solubility) was 1400 µg/mL (≈ 1790 µM). Moreover, the 50% inhibitory concentration (IC50) is 32000 nM in series [6], 8.4 nM in series [7] and 690 nM in series [4]. Besides, the Kb in series [3] was 2.57 nM. For the same molecule, the values for the Ki in series [13] and in series [14] were 3.4 nM and 4.5 nM, respectively. Further, the AD50 in [5] came to 101 µg/kg.
Consider `CC[C@H](C)[C@@H]1NC(=O)[C@@H](Cc2ccccc2)NC(=O)[C@@H]2CCCN2C(=O)[C@@H](Cc2ccccc2)N(C)C(=O)[C@H](CCCN)NC(=O)[C@H]2CCC=NN2C1=O`, for which the solubility in series [2] was determined as 1500 µg/mL (≈ 2020 µM). Besides, the IC50 in series [6] was determined as 800 nM. In addition, in series [3], the Kb is 3.39 nM. The AD50 in series [5] amounted to 71.6 µg/kg.
Take `CC[C@H](C)[C@@H]1NC(=O)[C@@H](Cc2c[nH]c3ccccc23)NC(=O)[C@@H]2CCCN2C(=O)[C@@H](Cc2c[nH]cn2)NC(=O)[C@@H]2CCCCN2C(=O)[C@H]2CCCCN2C1=O` (cyclo(I[dPip][Pip][dH]P[dW])) [listing 3 of 3 here]: the figures for the Kb in series [16] and in series [15] were 2.51 nM and 871 nM, respectively. For the same molecule, in [17], the IC50 came to 67 nM.

Broadly, the IC50 is the midpoint of a concentration-inhibition curve. A word on the solubility: it is the dissolved amount per volume that the medium holds. Read a low solubility as little dissolved substance. The term inhibition denotes the relative decrease from the control value, in per cent. The low end stands for a weak effect, the high end for a strong effect. By Ki is commonly meant the dissociation constant of the complex between target and ligand, obtained from inhibition or displacement. Higher therefore signals a looser hold on the target.
